Results reported in ChEMBL document CHEMBL1121874, “Importance of the aromatic ring in adrenergic amines. 5. Nonaromatic analogues of phenylethanolamine as inhibitors of phenylethanolamine N-methyltransferase: role of hydrophobic and steric interactions” (J Med Chem, 1981).

T1: Phenylethanolamine N-methyltransferase (Bos taurus, UniProt P10938)
T1 sequence (P10938 whole entry): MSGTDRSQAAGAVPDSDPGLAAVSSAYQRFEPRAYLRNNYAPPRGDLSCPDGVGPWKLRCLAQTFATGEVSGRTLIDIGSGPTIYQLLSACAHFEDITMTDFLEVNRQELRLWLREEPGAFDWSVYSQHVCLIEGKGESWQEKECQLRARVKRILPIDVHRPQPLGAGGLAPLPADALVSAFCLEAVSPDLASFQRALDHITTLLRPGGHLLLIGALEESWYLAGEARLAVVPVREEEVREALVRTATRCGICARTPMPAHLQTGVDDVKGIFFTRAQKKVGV


substrate: NCC(O)C1=C/CCCC/C=C\1; test: (§1) Substrate activity against phenylethanolamine N-methyl-transferase was tested

Molecule | Km [µM]
Phenylethanolamine N-methyltransferase (Bos taurus), P10938 (protein) MSGTDRSQAAGAVPDSDPGLAAVSSAYQRFEPRAYLRNNYAPPRGDLSCPDGVGPWKLRCLAQTFATGEVSGRTLIDIGSGPTIYQLLSACAHFEDITMTDFLEVNRQELRLWLREEPGAFDWSVYSQHVCLIEGKGESWQEKECQLRARVKRILPIDVHRPQPLGAGGLAPLPADALVSAFCLEAVSPDLASFQRALDHITTLLRPGGHLLLIGALEESWYLAGEARLAVVPVREEEVREALVRTATRCGICARTPMPAHLQTGVDDVKGIFFTRAQKKVGV | 128

substrate: NCC(O)C1CCCCC1; test: as §1

Molecule | Km [µM]
Phenylethanolamine N-methyltransferase (Bos taurus), P10938 (protein) MSGTDRSQAAGAVPDSDPGLAAVSSAYQRFEPRAYLRNNYAPPRGDLSCPDGVGPWKLRCLAQTFATGEVSGRTLIDIGSGPTIYQLLSACAHFEDITMTDFLEVNRQELRLWLREEPGAFDWSVYSQHVCLIEGKGESWQEKECQLRARVKRILPIDVHRPQPLGAGGLAPLPADALVSAFCLEAVSPDLASFQRALDHITTLLRPGGHLLLIGALEESWYLAGEARLAVVPVREEEVREALVRTATRCGICARTPMPAHLQTGVDDVKGIFFTRAQKKVGV | 40

substrate: NCC(O)C1CCCCCCC1; test: as §1

Molecule | Km [µM]
Phenylethanolamine N-methyltransferase (Bos taurus), P10938 (protein) MSGTDRSQAAGAVPDSDPGLAAVSSAYQRFEPRAYLRNNYAPPRGDLSCPDGVGPWKLRCLAQTFATGEVSGRTLIDIGSGPTIYQLLSACAHFEDITMTDFLEVNRQELRLWLREEPGAFDWSVYSQHVCLIEGKGESWQEKECQLRARVKRILPIDVHRPQPLGAGGLAPLPADALVSAFCLEAVSPDLASFQRALDHITTLLRPGGHLLLIGALEESWYLAGEARLAVVPVREEEVREALVRTATRCGICARTPMPAHLQTGVDDVKGIFFTRAQKKVGV | 26

substrate: NCC(O)/C1=C/CCCCCC1; test: as §1

Molecule | Km [µM]
Phenylethanolamine N-methyltransferase (Bos taurus), P10938 (protein) MSGTDRSQAAGAVPDSDPGLAAVSSAYQRFEPRAYLRNNYAPPRGDLSCPDGVGPWKLRCLAQTFATGEVSGRTLIDIGSGPTIYQLLSACAHFEDITMTDFLEVNRQELRLWLREEPGAFDWSVYSQHVCLIEGKGESWQEKECQLRARVKRILPIDVHRPQPLGAGGLAPLPADALVSAFCLEAVSPDLASFQRALDHITTLLRPGGHLLLIGALEESWYLAGEARLAVVPVREEEVREALVRTATRCGICARTPMPAHLQTGVDDVKGIFFTRAQKKVGV | 110

substrate: NCC(O)C1=C/C=C\C=C/C=C\1; test: as §1

Molecule | Km [µM]
Phenylethanolamine N-methyltransferase (Bos taurus), P10938 (protein) MSGTDRSQAAGAVPDSDPGLAAVSSAYQRFEPRAYLRNNYAPPRGDLSCPDGVGPWKLRCLAQTFATGEVSGRTLIDIGSGPTIYQLLSACAHFEDITMTDFLEVNRQELRLWLREEPGAFDWSVYSQHVCLIEGKGESWQEKECQLRARVKRILPIDVHRPQPLGAGGLAPLPADALVSAFCLEAVSPDLASFQRALDHITTLLRPGGHLLLIGALEESWYLAGEARLAVVPVREEEVREALVRTATRCGICARTPMPAHLQTGVDDVKGIFFTRAQKKVGV | 430

substrate: NCC(O)/C1=C/CC/C=C\CC1; test: as §1

Molecule | Km [µM]
Phenylethanolamine N-methyltransferase (Bos taurus), P10938 (protein) MSGTDRSQAAGAVPDSDPGLAAVSSAYQRFEPRAYLRNNYAPPRGDLSCPDGVGPWKLRCLAQTFATGEVSGRTLIDIGSGPTIYQLLSACAHFEDITMTDFLEVNRQELRLWLREEPGAFDWSVYSQHVCLIEGKGESWQEKECQLRARVKRILPIDVHRPQPLGAGGLAPLPADALVSAFCLEAVSPDLASFQRALDHITTLLRPGGHLLLIGALEESWYLAGEARLAVVPVREEEVREALVRTATRCGICARTPMPAHLQTGVDDVKGIFFTRAQKKVGV | 155

substrate: NCC(O)C1CC=CCC1; test: as §1

Molecule | Km [µM]
Phenylethanolamine N-methyltransferase (Bos taurus), P10938 (protein) MSGTDRSQAAGAVPDSDPGLAAVSSAYQRFEPRAYLRNNYAPPRGDLSCPDGVGPWKLRCLAQTFATGEVSGRTLIDIGSGPTIYQLLSACAHFEDITMTDFLEVNRQELRLWLREEPGAFDWSVYSQHVCLIEGKGESWQEKECQLRARVKRILPIDVHRPQPLGAGGLAPLPADALVSAFCLEAVSPDLASFQRALDHITTLLRPGGHLLLIGALEESWYLAGEARLAVVPVREEEVREALVRTATRCGICARTPMPAHLQTGVDDVKGIFFTRAQKKVGV | 57

biological target: T1, Phenylethanolamine N-methyltransferase; test: (§2) Inhibitory activity against phenylethanolamine N-methyl-transferase

Molecule | IC50 [µM]
C[Si](C)(C)OC1(C#N)CCCCCC1 | 510
NCC(O)C1CCCCCCC1 (stereo unspecified) | 7
O=CC1CCCCCCCCCC1 [CYCLOUNDECANE CARBALDEHYDE] | 9
CC(C)CC=O | 1000
C[Si](C)(C)OC(C#N)C12CC3CC(CC(C3)C1)C2 (stereo unspecified) | 195
NCC(O)C1CCCC1 (stereo unspecified) | 446
NCC(O)C1CCC1 (stereo unspecified) | > 1000
NCC1(O)CCCC1 | > 1000
O=CC1CCCCCCCC1 [CYCLONONANECARBALDEHYDE] | 6
NCC1(O)CCCCCC1 | 510
C[Si](C)(C)OC(C#N)C1CCC1 (stereo unspecified) | > 1000
CCCCCCCC=O [OCTANAL] | 216
CCC(C)C(C)C=O (stereo unspecified) | 403
CCCCCC(C)=O | 669
NCC(O)/C1=C/CC/C=C\CC1 (stereo unspecified) | 89
NCC(O)C1CCCCCCCCCC1 (stereo unspecified) | 9
C[Si](C)(C)OC(C#N)C1CCCCCC1 (stereo unspecified) | 8
O=C1CCCCCCC1 [CYCLOOCTANONE] | 72
NCC1(O)CCCCCCCCCC1 | 8
O=C1CCCCCC1 [CYCLOHEPTANONE] | 510
CCCCCCC(O)CN (stereo unspecified) | 109
CCCCCC=O [HEXANAL] | 314
O=CC1CCCCCC1 [CYCLOHEPTANE CARBALDEHYDE] | 8

Molecule | IC50 [µM]
NCC1(O)CCCCCCC1 | 72
NCC(O)C1=C/C=C\C=C/C=C\1 (stereo unspecified) | 760
NCC1(O)CCCCC1 | > 1000
CCCCCCCC(C#N)O[Si](C)(C)C (stereo unspecified) | 216
CCCCCC(C)(O)CN (stereo unspecified) | 669
CC(C)CC(C#N)O[Si](C)(C)C (stereo unspecified) | 1000
NCC1(O)CCCCCCCC1 | 17
O=C1CCCC1 [CYCLOPENTANONE] | > 1000
C[Si](C)(C)OC1(C#N)CCCCCCC1 | 72
C[Si](C)(C)OC1(C#N)CCCCC1 | > 1000
CCC(C)C(C)C(O)CN (stereo unspecified) | 403
O=C1CCCCC1 [CYCLOHEXANONE] | > 1000
CCC(C)C(C)C(C#N)O[Si](C)(C)C (stereo unspecified) | 403
CCC(CC)C(C#N)O[Si](C)(C)C (stereo unspecified) | 545
C[Si](C)(C)OC(C#N)C1CCCCCCCC1 (stereo unspecified) | 6
CCC(CC)C(O)CN (stereo unspecified) | 545
CCCCCC(C)(C#N)O[Si](C)(C)C (stereo unspecified) | 669
CCCCCCC(C)(C#N)O[Si](C)(C)C (stereo unspecified) | 664
NCC(O)C1=C/CCCC/C=C\1 (stereo unspecified) | 57
NCC(O)C1CCCCCCCC1 (stereo unspecified) | 6
CCCCCCCC(O)CN (stereo unspecified) | 216
C[Si](C)(C)OC(C#N)C1CCCC1 (stereo unspecified) | 446
NCC(O)C1CCCCCC1 (stereo unspecified) | 8

Molecule | IC50 [µM]
NCC(O)C1CC=CCC1 (stereo unspecified) | 52
CCCCC=O [PENTANAL] | 345
CCCCCC(O)CN (stereo unspecified) | 314
NCC(O)C12CC3CC(CC(C3)C1)C2 (stereo unspecified) | 195
CCCCCC(C#N)O[Si](C)(C)C (stereo unspecified) | 314
O=CC1CCC1 [CYCLOBUTANE CARBALDEHYDE] | > 1000
CCC(C=O)CC | 545
O=C1CCCCCCCC1 [CYCLONONANONE] | 17
NCC(O)/C1=C/CCCCCC1 (stereo unspecified) | 38
CCCCCCC(C#N)O[Si](C)(C)C (stereo unspecified) | 109
CCCCC(C#N)O[Si](C)(C)C (stereo unspecified) | 345
CC(C)CC(O)CN (stereo unspecified) | 1000
CCCCCCC(C)(O)CN (stereo unspecified) | 664
NCC(O)C1CCCCC1 (stereo unspecified) | 14
C[Si](C)(C)OC(C#N)C1CCCCCCCCCC1 (stereo unspecified) | 9
O=CC12CC3CC(CC(C3)C1)C2 | 195
C[Si](C)(C)OC1(C#N)CCCCCCCC1 | 17
O=CC1CCCC1 [CYCLOPENTANECARBALDEHYDE] | 446
CCCCC(O)CN (stereo unspecified) | 345
C[Si](C)(C)OC1(C#N)CCCC1 | > 1000
CCCCCCC=O [HEPTANAL] | 109
CCCCCCC(C)=O | 664

compound: NC[C@@H](O)c1ccccc1; test: as §2

Molecule | Km [µM]
Phenylethanolamine N-methyltransferase (Bos taurus), P10938 (protein) MSGTDRSQAAGAVPDSDPGLAAVSSAYQRFEPRAYLRNNYAPPRGDLSCPDGVGPWKLRCLAQTFATGEVSGRTLIDIGSGPTIYQLLSACAHFEDITMTDFLEVNRQELRLWLREEPGAFDWSVYSQHVCLIEGKGESWQEKECQLRARVKRILPIDVHRPQPLGAGGLAPLPADALVSAFCLEAVSPDLASFQRALDHITTLLRPGGHLLLIGALEESWYLAGEARLAVVPVREEEVREALVRTATRCGICARTPMPAHLQTGVDDVKGIFFTRAQKKVGV | 136
